Laboratory results: patent US20230365592A1 (Agios Pharmaceuticals, Inc., priority 2022, published 2023)

Biological target: T1, human PAH with the R408W mutation (Homo sapiens, UniProt P00439, R408W)
T1 construct: expressed in transfected cells
T1 sequence (P00439 1-452 R408W): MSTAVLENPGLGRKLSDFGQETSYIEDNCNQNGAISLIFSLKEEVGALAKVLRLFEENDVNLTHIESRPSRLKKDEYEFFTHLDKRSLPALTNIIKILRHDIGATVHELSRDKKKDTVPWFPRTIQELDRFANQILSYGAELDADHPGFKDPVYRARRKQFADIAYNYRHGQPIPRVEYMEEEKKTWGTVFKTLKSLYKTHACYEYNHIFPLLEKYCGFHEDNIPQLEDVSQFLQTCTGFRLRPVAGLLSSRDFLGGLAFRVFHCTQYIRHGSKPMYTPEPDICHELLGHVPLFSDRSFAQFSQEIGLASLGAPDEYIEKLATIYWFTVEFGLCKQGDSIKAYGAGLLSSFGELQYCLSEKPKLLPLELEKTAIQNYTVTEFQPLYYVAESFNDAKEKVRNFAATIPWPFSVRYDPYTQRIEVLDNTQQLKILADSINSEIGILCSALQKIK
Test: Cell Based Phenylalanine Flux Assay;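 further: after compound treatment, cells received sepiapterin plus isotope-labelled Phenylalanine for 4 hours, then labelled Tyrosine in the medium was quantified, 10-point 2-fold dilution series run in duplicate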
Conditions: A375 cells expressing R408W PAH; 24 hrs with compound, then 20 µM sepiapterin and 800 µM 13C9,15N-Phenylalanine for 4 hours; 13C-Tyrosine by LC-MS; average where tested multiple times; read-out: AC50

Row | AC50 | SMILES
1 | > 5 µM | Cc1nc(C(=O)N2CCc3[nH]cnc3C2c2cc3cccc(C(F)(F)F)n3n2)n(C)n1 (stereo not shown) [listing 1 of 2 here]
2 | > 5 µM | Cn1ccc(-c2nnc(C(=O)N3CCc4[nH]cnc4C3c3cc4cc(C(F)(F)F)ccn4n3)o2)n1 (stereo not shown) [listing 1 of 2 here]
3 | > 5 µM | O=C(c1nnc(-c2cnn(C(F)(F)F)c2)o1)N1CCc2[nH]cnc2C1c1cc2cccc(F)n2n1 (stereo not shown) [listing 1 of 2 here]
4 | 1 to 5 µM | Cc1nnc(C(=O)N2CCc3[nH]cnc3C2c2cc3cccc(F)n3n2)o1 (stereo not shown) [listing 1 of 2 here]
5 | > 5 µM | O=C(c1nnc(-c2ncccn2)o1)N1CCc2[nH]cnc2C1c1cc2cccc(C(F)(F)F)n2n1 (stereo not shown) [listing 1 of 2 here]
6 | > 5 µM | O=C(c1cnco1)N1CCc2[nH]cnc2C1c1cc2cc(C(F)(F)F)ccn2n1 (stereo not shown) [listing 1 of 2 here]
7 | > 5 µM | O=C(c1cnco1)N1CCc2[nH]cnc2C1c1cc2cccc(C(F)(F)F)n2n1 (stereo not shown) [listing 1 of 2 here]
8 | 1 to 5 µM | Cc1cccc2cc(C3c4nc[nH]c4CCN3C(=O)c3cnco3)nn12 (stereo not shown) [listing 1 of 2 here]
9 | > 5 µM | Cc1nc(C(C)O)oc1C(=O)N1CCc2[nH]cnc2C1c1cc2cccc(Cl)n2n1 (stereo not shown) [listing 1 of 2 here]
10 | 1 to 5 µM | Cn1nc(C(F)(F)F)nc1C(=O)N1CCc2[nH]cnc2C1c1cc2cccc(C(F)(F)F)n2n1 (stereo not shown)
11 | 1 to 5 µM | Cc1nc(C(=O)N2CCc3[nH]cnc3C2c2cc3cccc(C(F)(F)F)n3n2)n(C)n1 (stereo not shown) [listing 2 of 2 here]
12 | 1 to 5 µM | Cn1ccc(-c2nnc(C(=O)N3CCc4[nH]cnc4C3c3cc4cc(C(F)(F)F)ccn4n3)o2)n1 (stereo not shown) [listing 2 of 2 here]
13 | 1 to 5 µM | O=C(c1nnc(C2CC(F)(F)C2)o1)N1CCc2[nH]cnc2C1c1cc2cccc(C(F)(F)F)n2n1 (stereo not shown)
14 | 1 to 5 µM | Cn1cncc1-c1nnc(C(=O)N2CCc3[nH]cnc3C2c2cc3cccc(C(F)F)n3n2)o1 (stereo not shown)
15 | 1 to 5 µM | O=C(c1nnc(C2CC(F)(F)C2)o1)N1CCc2[nH]cnc2C1c1cc2cccc(Cl)n2n1 (stereo not shown)
16 | 1 to 5 µM | O=C(c1nnc(-c2cnn(C(F)(F)F)c2)o1)N1CCc2[nH]cnc2C1c1cc2cccc(F)n2n1 (stereo not shown) [listing 2 of 2 here]
17 | 1 to 5 µM | Cc1nnc(C(=O)N2CCc3[nH]cnc3C2c2cc3cccc(F)n3n2)o1 (stereo not shown) [listing 2 of 2 here]
18 | 1 to 5 µM | Cc1nc(C(C)(C)O)oc1C(=O)N1CCc2[nH]cnc2C1c1cc2cccc(C(F)(F)F)n2n1 (stereo not shown)
19 | 1 to 5 µM | Cc1nc(C(C)(C)O)oc1C(=O)N1CCc2[nH]cnc2C1c1cc2cccc(C)n2n1 (stereo not shown)
20 | > 5 µM | CC(C)(O)c1nnc(C(=O)N2CCc3[nH]cnc3C2c2cc3cc(C(F)(F)F)ccn3n2)o1 (stereo not shown)

Row | AC50 | SMILES
21 | 1 to 5 µM | CC(C)(O)c1nnc(C(=O)N2CCc3[nH]cnc3C2c2cc3cccc(C(F)F)n3n2)o1 (stereo not shown)
22 | 1 to 5 µM | CC(C)(O)c1ncc(C(=O)N2CCc3[nH]cnc3C2c2cc3cccc(C(F)(F)F)n3n2)o1 (stereo not shown)
23 | 1 to 5 µM | O=C(c1nnc(-c2ncccn2)o1)N1CCc2[nH]cnc2C1c1cc2cccc(C(F)(F)F)n2n1 (stereo not shown) [listing 2 of 2 here]
24 | 1 to 5 µM | CC(C)c1nnc(C(=O)N2CCc3[nH]cnc3C2c2cc3cccc(C(F)(F)F)n3n2)o1 (stereo not shown)
25 | 1 to 5 µM | Cc1nnc(C(=O)N2CCc3[nH]cnc3C2c2cc3cc(C(F)(F)F)ccn3n2)o1 (stereo not shown)
26 | 1 to 5 µM | CC(C)(C)c1nnc(C(=O)N2CCc3[nH]cnc3C2c2cc3cc(C(F)(F)F)ccn3n2)o1 (stereo not shown)
27 | 1 to 5 µM | Cn1nc(C(F)F)nc1C(=O)N1CCc2[nH]cnc2C1c1cc2cccc(C(F)(F)F)n2n1 (stereo not shown)
28 | 1 to 5 µM | Cc1cccc2cc(C3c4nc[nH]c4CCN3C(=O)c3cnn4ccccc34)nn12 (stereo not shown)
29 | 1 to 5 µM | O=C(c1cnco1)N1CCc2[nH]cnc2C1c1cc2cc(C(F)(F)F)ccn2n1 (stereo not shown) [listing 2 of 2 here]
30 | 1 to 5 µM | O=C(c1cnco1)N1CCc2[nH]cnc2C1c1cc2ccc(C(F)(F)F)cn2n1 (stereo not shown)
31 | 1 to 5 µM | O=C(c1cnco1)N1CCc2[nH]cnc2C1c1cc2cccc(C(F)(F)F)n2n1 (stereo not shown) [listing 2 of 2 here]
32 | > 5 µM | Cc1nc(C(=O)N2CCc3[nH]cnc3C2c2cc3cccc(Cl)n3n2)n(C)n1 (stereo not shown)
33 | 1 to 5 µM | O=C(c1cnco1)N1CCc2[nH]cnc2C1c1cc2cccc(Cl)n2n1 (stereo not shown)
34 | 1 to 5 µM | Cn1nc(C2CC2)nc1C(=O)N1CCc2[nH]cnc2C1c1cc2cccc(Cl)n2n1 (stereo not shown)
35 | 1 to 5 µM | Cc1cccc2cc(C3c4nc[nH]c4CCN3C(=O)c3cnco3)nn12 (stereo not shown) [listing 2 of 2 here]
36 | 1 to 5 µM | O=C(c1cnn2ccccc12)N1CCc2[nH]cnc2C1c1cc2cccc(C(F)(F)F)n2n1 (stereo not shown)
37 | 1 to 5 µM | Cc1nc(C(C)O)oc1C(=O)N1CCc2[nH]cnc2C1c1cc2cccc(C(F)(F)F)n2n1 (stereo not shown)
38 | 1 to 5 µM | Cc1nc(C(C)O)oc1C(=O)N1CCc2[nH]cnc2C1c1cc2cccc(C)n2n1 (stereo not shown)
39 | 1 to 5 µM | Cc1nc(C(C)O)oc1C(=O)N1CCc2[nH]cnc2C1c1cc2cccc(Cl)n2n1 (stereo not shown) [listing 2 of 2 here]

Second part, the molecule before the results:

Row | SMILES | AC50
40 | Cc1c(C2c3nc[nH]c3CCN2C(=O)c2nnc(-c3cnn(C)c3C)o2)nn2ccccc12 (stereo not shown) | 1 to 5 µM
41 | COc1cccn2nc(C3c4nc[nH]c4CCN3C(=O)c3nnc(C)o3)cc12 (stereo not shown) [listing 1 of 2 here] | > 5 µM
42 | Cc1c(C2c3nc[nH]c3CCN2C(=O)c2nnc(C3CC3)o2)nn2ccccc12 (stereo not shown) [listing 1 of 2 here] | 1 to 5 µM
43 | Cc1cccc2cc(C3c4nc[nH]c4CCN3c3nnc(C4CC4)o3)nn12 (stereo not shown) [listing 1 of 2 here] | > 5 µM
44 | O=C(c1cnn2cc(N3CCOCC3)ccc12)N1CCc2[nH]cnc2C1c1cc2ccccn2n1 (stereo not shown) [listing 1 of 2 here] | > 5 µM
45 | O=C(CCc1nccs1)N1CCc2[nH]cnc2C1c1cc2ccccn2n1 (stereo not shown) | 1 to 5 µM
46 | CN1CCN(c2nnc(C(=O)N3CCc4[nH]cnc4C3c3cc4ccccn4n3)o2)CC1 (stereo not shown) | > 5 µM
47 | Cn1cc(-c2ccc3c(C(=O)N4CCc5[nH]cnc5C4c4cc5ccccn5n4)cnn3c2)cn1 (stereo not shown) | 1 to 5 µM
48 | Cc1c(C2c3nc[nH]c3CCN2C(=O)c2nnc(C(C)(C)F)o2)nn2ccccc12 (stereo not shown) | 1 to 5 µM
49 | O=C(c1nnc(C2CC(F)(F)C2)o1)N1CCc2[nH]cnc2C1c1cc2cccc(C(F)F)n2n1 (stereo not shown) | 1 to 5 µM
50 | Cn1cnc(-c2nnc(C(=O)N3CCc4[nH]cnc4C3c3cc4c(C(F)F)cccn4n3)o2)c1 (stereo not shown) | 1 to 5 µM
51 | CC(C)c1nnc(C(=O)N2CCc3[nH]cnc3C2c2cc3c(C(F)F)cccn3n2)o1 (stereo not shown) | > 5 µM
52 | Cn1cncc1-c1nnc(C(=O)N2CCc3[nH]cnc3C2c2cc3c(C(F)F)cccn3n2)o1 (stereo not shown) | 1 to 5 µM
53 | COc1cccn2nc(C3c4nc[nH]c4CCN3C(=O)c3nnc(C)o3)cc12 (stereo not shown) [listing 2 of 2 here] | 1 to 5 µM
54 | CC(C)(O)c1nnc(C(=O)N2CCc3[nH]cnc3C2c2cc3c(C(F)F)cccn3n2)o1 (stereo not shown) | 1 to 5 µM
55 | Cc1ccc2cc(C3c4nc[nH]c4CCN3C(=O)c3nnc(C(C)(C)O)o3)nn2c1 (stereo not shown) | 1 to 5 µM

Row | SMILES | AC50
56 | O=C(c1nnc(-c2ncccn2)o1)N1CCc2[nH]cnc2C1c1cc2cccc(F)n2n1 (stereo not shown) | 1 to 5 µM
57 | O=C(c1nnc(-c2ncccn2)o1)N1CCc2[nH]cnc2C1c1cc2ccccn2n1 (stereo not shown) | 1 to 5 µM
58 | O=C(c1nnc(-c2ccccn2)o1)N1CCCc2[nH]cnc2C1c1cc2ccccn2n1 (stereo not shown) | > 5 µM
59 | Cc1c(C2c3nc[nH]c3CCN2C(=O)c2nnc(C3CC3)o2)nn2ccccc12 (stereo not shown) [listing 2 of 2 here] | 1 to 5 µM
60 | Fc1cccc2cc(C3c4nc[nH]c4CCN3c3nnc(C4CC4)o3)nn12 (stereo not shown) | 1 to 5 µM
61 | Cc1cccc2cc(C3c4nc[nH]c4CCN3c3nnc(C4CC4)o3)nn12 (stereo not shown) [listing 2 of 2 here] | 1 to 5 µM
62 | Cc1ccc2cc(C3c4nc[nH]c4CCN3C(=O)c3nnc(C)o3)nn2c1 (stereo not shown) | 1 to 5 µM
63 | Cc1nnc(N2CCc3[nH]cnc3C2c2cc3ccccn3n2)o1 (stereo not shown) | 1 to 5 µM
64 | Cc1c(C2c3nc[nH]c3CCN2C(=O)c2nnc(C(C)(C)C)o2)nn2ccccc12 (stereo not shown) | 1 to 5 µM
65 | O=C(c1cnn2cc(N3CCOCC3)ccc12)N1CCc2[nH]cnc2C1c1cc2ccccn2n1 (stereo not shown) [listing 2 of 2 here] | 1 to 5 µM
66 | O=C(c1nnc(N2CCC(F)CC2)o1)N1CCc2[nH]cnc2C1c1cc2ccccn2n1 (stereo not shown) | 1 to 5 µM
67 | Cc1c(C2c3nc[nH]c3CCN2C(=O)c2cnco2)nn2ccccc12 (stereo not shown) | 1 to 5 µM
68 | O=C(c1cnco1)N1CCc2[nH]cnc2C1c1cc2cc(F)ccn2n1 (stereo not shown) | 1 to 5 µM
69 | O=C(C1CC1(F)F)N1CCc2[nH]cnc2C1c1cc2ccccn2n1 (stereo not shown) | 1 to 5 µM
70 | CC(O)c1nnc(C(=O)N2CCc3[nH]cnc3C2c2cc3ccccn3n2)o1 (stereo not shown) | 1 to 5 µM
